Data taken from article PMC11083775, “Synthesis, In Silico and Kinetics Evaluation of N-(β-D-glucopyranosyl)-2-arylimidazole-4(5)-carboxamides and N-(β-D-glucopyranosyl)-4(5)-arylimidazole-2-carboxamides as Glycogen Phosphorylase Inhibitors” (International Journal of Molecular Sciences, 2024).

Target: T1, rabbit muscle glycogen phosphorylase b (rmGPb) (Oryctolagus cuniculus, UniProt P00489)
T1 sequence (P00489 1-843): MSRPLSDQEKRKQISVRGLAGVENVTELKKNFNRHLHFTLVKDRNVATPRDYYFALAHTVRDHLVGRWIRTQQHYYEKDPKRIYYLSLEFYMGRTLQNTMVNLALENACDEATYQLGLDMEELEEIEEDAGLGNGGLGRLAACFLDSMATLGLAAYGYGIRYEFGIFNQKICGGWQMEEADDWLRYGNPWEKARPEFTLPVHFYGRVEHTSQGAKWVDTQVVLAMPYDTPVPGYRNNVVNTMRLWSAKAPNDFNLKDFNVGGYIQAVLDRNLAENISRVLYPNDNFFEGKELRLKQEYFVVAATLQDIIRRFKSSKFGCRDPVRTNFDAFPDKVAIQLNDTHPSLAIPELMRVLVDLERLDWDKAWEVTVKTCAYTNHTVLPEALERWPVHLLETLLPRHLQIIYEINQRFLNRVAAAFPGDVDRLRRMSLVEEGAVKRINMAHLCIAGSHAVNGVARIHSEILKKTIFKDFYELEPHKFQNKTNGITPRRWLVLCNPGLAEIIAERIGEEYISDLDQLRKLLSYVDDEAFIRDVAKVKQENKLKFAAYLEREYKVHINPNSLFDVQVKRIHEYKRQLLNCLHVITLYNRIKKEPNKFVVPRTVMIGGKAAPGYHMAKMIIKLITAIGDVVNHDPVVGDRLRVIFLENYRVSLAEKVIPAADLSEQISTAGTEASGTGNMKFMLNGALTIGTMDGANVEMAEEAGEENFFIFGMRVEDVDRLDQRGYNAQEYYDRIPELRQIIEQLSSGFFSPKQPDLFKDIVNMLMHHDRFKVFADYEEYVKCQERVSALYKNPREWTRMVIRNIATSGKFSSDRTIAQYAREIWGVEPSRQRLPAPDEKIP
Experiment: not given
Settings: cited from earlier work

| Structure (SMILES) | Ki |
| --- | --- |
| O=C(N[C@@H]1O[C@H](CO)[C@@H](O)[C@H](O)[C@H]1O)c1nc(-c2ccc3ccccc3c2)no1 [VIIIc] | no inh. |
| O=C(N[C@@H]1O[C@H](CO)[C@@H](O)[C@H](O)[C@H]1O)c1noc(-c2ccc3ccccc3c2)n1 [VIIc] | no inh. |

Target: T1, rabbit muscle glycogen phosphorylase b (rmGPb)
Experiment: Kinetics of rabbit muscle GPb inhibition, assayed in the direction of glycogen synthesis
Format: biochemical
Settings: 10 μg/mL enzyme, glucose-1-phosphate 4–40 mM, 1% glycogen, 1 mM AMP, at least three independent experiments, ± SD, read-out: Inhibition constant (Ki)
Procedure: Inhibitory constants (Ki) were determined for rabbit muscle glycogen phosphorylase. Enzyme activity was assayed in the direction of glycogen synthesis, as previously published. The experiments were performed using the rabbit muscle phosphorylase b (dephosphorylated, GPb) isoform. Kinetic data for the inhibition of GPb by the compounds were obtained in the presence of 10 μg/mL of the enzyme, varying the concentrations of α-D-glucose-1-phosphate (4–40 mM) and using constant concentrations (1%) of glycogen and AMP (1 mM). The enzymatic activities were presented in the form of a double reciprocal plot (Lineweaver–Burk). The plots were analysed using a non-linear data analysis program. The inhibitor constants (Ki) were determined using secondary plots, replotting the slopes from the Lineweaver–Burk plot against the inhibitor concentrations. The means of the standard errors for all calculated kinetic parameters averaged to less than 10% [40].

| Structure (SMILES) | Ki [µM] |
| --- | --- |
| O=C(N[C@@H]1O[C@H](CO)[C@@H](O)[C@H](O)[C@H]1O)c1cnc(-c2ccccc2)[nH]1 [Compound 1a, N-(β-D-Glucopyranosyl)-2-phenyl-1H-imidazole-4(5)-carboxamide] | 10.4 ± 6.2 |
| O=C(N[C@@H]1O[C@H](CO)[C@@H](O)[C@H](O)[C@H]1O)c1cnc(-c2cccc3ccccc23)[nH]1 [Compound 1b, N-(β-D-Glucopyranosyl)-2-(1-naphthyl)-1H-imidazole-4(5)-carboxamide] | 16.2 ± 8.1 |
| O=C(N[C@@H]1O[C@H](CO)[C@@H](O)[C@H](O)[C@H]1O)c1cnc(-c2ccc3ccccc3c2)[nH]1 [Compound 1c, N-(β-D-Glucopyranosyl)-2-(2-naphthyl)-1H-imidazole-4(5)-carboxamide] | 12.8 ± 3 |
| O=C(N[C@@H]1O[C@H](CO)[C@@H](O)[C@H](O)[C@H]1O)c1ncc(-c2ccccc2)[nH]1 [Compound 2a, N-(β-D-Glucopyranosyl)-4(5)-phenyl-1H-imidazole-2-carboxamide] | 67.4 ± 9.7 |
| O=C(N[C@@H]1O[C@H](CO)[C@@H](O)[C@H](O)[C@H]1O)c1ncc(-c2cccc3ccccc23)[nH]1 [Compound 2b, N-(β-D-Glucopyranosyl)-4(5)-(1-naphthyl)-1H-imidazole-2-carboxamide] | 4.1 ± 0.8 |
| O=C(N[C@@H]1O[C@H](CO)[C@@H](O)[C@H](O)[C@H]1O)c1ncc(-c2ccc3ccccc3c2)[nH]1 [Compound 2c, N-(β-D-Glucopyranosyl)-4(5)-(2-naphthyl)-1H-imidazole-2-carboxamide] | 3.3 ± 0.1 |
